Results published in patent publication US9006241B2, “Pyrimidine derivatives” (Noviga Research AB, priority 2011, dated 2015).

Assays:
Format in all cases: cell-based
[1] = system: CCRF-CEM cancer cells - leukemia; assay: Fluorometric Microculture Cytotoxicity Assay (FMCA), CCRF-CEM; conditions: Homo sapiens, 72 h incubation
Text: (§1) The Fluorometric Microculture Cytotoxicity Assay, FMCA (Larsson, R., et al.; Anticancer Res, 1989, 9, 1111-1119), is a three day non-clonogenic microplate-based cell viability assay used for measurement of the cytotoxic and/or cytostatic effect of compounds in vitro (Lindhagen, E. et al.; Nat. Protoc., 2008, 3, 1364-1369). FMCA represents a valuable method to measure cytotoxicity in a number of cell types, both cell lines and primary cells from patients (Larsson, R., et al.; Int. J. Cancer, 1992, 50, 177-185; Fridborg, H., et al.; Eur. J. Cancer, 1999. 35, 424-432; Dhar, S., et al.; Br. J. Cancer, 1996, 74, 888-896).
(§2) FMCA is based on the principle that fluorescein diacetate (FDA) is converted to the fluorescent probe fluorescein by esterases in the plasma membranes of living cells. For experiments, 96 or 384-well microplates are prepared with compounds and stored at −70° C. until use. Cells are then seeded into the drug-prepared plates and placed in an incubator for 72 h. On the last day of incubation, the plates are washed and a buffer containing FDA is added and incubated with the cells for 45 minutes. Finally the fluorescence per well is measured in a fluorometer and a Survival Index % (SI) for each compound-treated well is calculated with the equation: Compound-treated cells minus blank divided by control cells minus blank. A high SI-value indicates a large percentage of living cells and vice versa.
In subsequent experiments, compounds were tested, along with a number of approved cancer drugs (dasatinib, pazopanib, sorafenib, and sunitinib) as described above. Initially, the acute lymphoblastic leukemia cell line CCRF-CEM was used throughout. In the assay plates, medium was added to six empty wells (blank wells) and wells were filled with PBS and cell suspension and served as control wells. SI-values were then calculated for each compound-treated well as described above. All experiments were conducted twice and a new batch of plates was prepared for each experiment.
(§3) For dose-response experiments, 384-well plates were prepared as follows:
(§4) Compounds of the invention as well comparative kinase inhibitors sorafenib sunitinib, dasatinib, pazopanib and a reference compound disclosed in WO 2009/071535 (compound #107) were diluted with PBS to a concentration ten-times higher than the desired starting concentration. Then, a Biomek 2000 liquid handling system was employed to serially dilute the compounds in a deep-well 384-well plate. From this plate, assay plates containing 5 μl compound per well were prepared with the Biomek 2000. Certain compounds precipitated when diluted with PBS, and these compounds were therefore prepared in a 96-well plate manually as described above using culture medium RPMI 1640 instead of PBS.
(§5) The compounds were also tested at five concentrations, with five times serial dilution on the following cell types: CCRF-CEM, hTERT-RPE1 (normal retinal epithelial cells), hRPTEpiC (normal renal cells), and peripheral blood mononuclear cells (PBMC). Each experiment was performed three times, except for PBMC and hRPTEpiC, which were performed twice. SI-values were calculated, graphs were plotted using GraphPadPrism 5.0 (GraphPad Software Inc. La Jolla, Calif.) and IC50-values for each cell type and compound were determined from the curves.

[2] = system: CEM/VM1 (teniposide-resistant leukemia); assay: FMCA, CEM/VM1; conditions: Homo sapiens, CEM/VM1 teniposide-resistant leukemia cells
Text: as §1, §2, §3, §4, §5
(§6) The compounds of the invention were also tested on further cancer cell lines related to breast cancer (MDA-MB-231; see e.g. Cailleau, R., et al.; J. Natl. Cancer Inst., 1974, 53, 661-674), teniposide-resistant leukemia (CEM/VM1 see e.g. Danks, M., et al.; Cancer Res., 1987, 47, 1297-1301), leukemia (HL-60; see e.g. Collins, S., et al.; Nature, 1977, 270, 347-349), doxorubicin-resistant lung cancer (H69AR; see e.g. Mirski, S., et al.; Cancer Res., 1987, 47, 2594-2598), myeloma (RPMI 8226; see e.g. Matsuoka, Y., et al.; Proc. Soc. Exp. Biol. Med., 1967, 125, 1246-1250), doxorubicin-resistant myeloma (8226/Dox40; see e.g. Dalton, W., et al.; Blood, 1989, 15, 747-752), lymphoma (U-937, see e.g. Sundström, C., et al.; Int. J. Cancer, 1976, 17, 565-577), vincristin-resistant lymphoma (U-937-vcr; see e.g. Botling, J., et al.; Int. J. Cancer, 1994, 58, 269-274), ovarian cancer (A2780; see e.g. Hamilton, T., et al.; Semin. Oncol., 1984, 11, 285-298), doxorubicin-resistant ovarian cancer (A2780/Adr), cisplatin-resistant ovarian cancer (A2780/Cis; see e.g. Behrens, B., et al. Cancer Res. 1987, 47, 414-418), pancreatic cancer (PANC-1, BxPC-3, and MIA PaCa-2; see e.g. Lieber, M., et al.; Int. J. Cancer, 1975, 15, 741-747; Loor, R., et al.; Clin. Lab. […]

[3] = system: H69AR (doxorubicin-resistant lung cancer); assay: FMCA, H69AR; conditions: Homo sapiens, H69AR doxorubicin-resistant lung cancer cells
Text: as §1, §2, §3, §4, §5, §6

RPMI 8226 (myeloma) = assay: FMCA, RPMI 8226; conditions: Homo sapiens, RPMI 8226 myeloma cells
Text: as §1, §2, §3, §4, §5, §6

[4] = system: 8226/Dox40 (doxorubicin-resistant myeloma); assay: FMCA, 8226/Dox40; conditions: 8226/Dox40 doxorubicin-resistant myeloma cells
Text: as §1, §2, §3, §4, §5, §6

U-937 (lymphoma) = assay: FMCA, U-937; conditions: Homo sapiens, U-937 lymphoma cells
Text: as §1, §2, §3, §4, §5, §6

[5] = system: U-937-vcr (vincristin-resistant lymphoma); assay: FMCA, U-937-vcr; conditions: U-937-vcr vincristin-resistant lymphoma cells
Text: as §1, §2, §3, §4, §5, §6

A2780 (ovarian cancer) = assay: FMCA, A2780; conditions: Homo sapiens, A2780 ovarian cancer cells
Text: as §1, §2, §3, §4, §5, §6

[6] = system: A2780/Adr (doxorubicin-resistant ovarian cancer); assay: FMCA, A2780/Adr; conditions: A2780/Adr doxorubicin-resistant ovarian cancer cells
Text: as §1, §2, §3, §4, §5, §6

[7] = system: A2780/Cis (cisplatin-resistant ovarian cancer); assay: FMCA, A2780/Cis; conditions: A2780cis, A2780/Cis cisplatin-resistant ovarian cancer cells
Text: as §1, §2, §3, §4, §5, §6

`Cc1ccc2[nH]cc(CCNc3nccc(Nc4ccc5[nH]c(C)cc5c4)n3)c2c1` [Example 9, N^2-[2-(5-methyl-1H-indol-3-yl)ethyl]-N^4-(2-methyl-1H-indol-5-yl)pyrimidine-2,4-diamine] gave an EC50 [1] of 38 nM, an EC50 [2] of 64 nM and an EC50 [3] of 170 nM. The EC50 (RPMI 8226 (myeloma)) was 170 nM, the EC50 [4] was 200 nM and the EC50 (U-937 (lymphoma)) was 80 nM. For the same compound, the EC50 [5] was 46 nM, the EC50 (A2780 (ovarian cancer)) was 210 nM and the EC50 [6] was 820 nM. It also gave an EC50 [7] of 200 nM.
